From ChEMBL document CHEMBL2046371, “Synthesis and study of cyclic pronucleotides of 5-fluoro-2'-deoxyuridine” (Bioorg Med Chem Lett, 2012) come the findings set out here.

SMILES strings stand for the structures.

Experiment [1] is described as follows: Cytotoxicity against thymidine kinase-deficient mouse LMTK cells after 5 days by MTT assay. In kind it is cell-based. The conditions noted are these: L-M(TK-), 120 h.
A further experiment has as its system A2780. The experiment in a line: Cytotoxicity against human A2780 cells after 5 days by MTT assay. The class given is functional, cell-based. The conditions noted are these: A2780, 120 h. (In general: Tetrazolium dyes change colour on reduction, which living cells bring about.)

A word on the IC50: it is the concentration needed to halve the response being measured. A low value points to greater potency in that assay. On to `COC(=O)[C@H](C)N[P@]1(=O)OC[C@H]2O[C@@H](n3cc(F)c(=O)[nH]c3=O)C[C@@H]2O1`, for which the values for the IC50 (in experiment [1]; in the experiment on A2780) were 60.7 µM and 1.4 µM, respectively.

With `COC(=O)[C@H](C)N[P@@]1(=O)OC[C@H]2O[C@@H](n3cc(F)c(=O)[nH]c3=O)C[C@@H]2O1`, the IC50 in experiment [1] was found to be 12.7 µM; with A2780, 1.4 µM.

In the case of `COC(=O)CNP1(=O)OC[C@H]2O[C@@H](n3cc(F)c(=O)[nH]c3=O)C[C@@H]2O1` (stereo not given in full), the results for the IC50 (in experiment [1]; with A2780) were 141 µM and 0.55 µM, respectively.

In the case of `COC(=O)[C@H](C)NP(=O)(OC[C@H]1O[C@@H](n2cc(F)c(=O)[nH]c2=O)C[C@@H]1O)Oc1ccccc1` (stereo not given in full), the IC50 in experiment [1] was 45.6 µM; in the experiment on A2780, 2.4 µM.

Consider `O=c1[nH]c(=O)n([C@H]2C[C@H](O)[C@@H](CO)O2)cc1F` [FLOXURIDINE], for which the results for the IC50 (in experiment [1]; with A2780) were 4.5 µM and 0.026 µM, respectively.
